Results: patent US8653071B2, “α4β2 neuronal nicotinic acetylcholine receptor ligands” (Suven Life Sciences Limited, priority 2009, dated 2014)

Experiments:
[1] = target: Nicotinic Acetylcholine α4β2 Receptor (UniProt P09483+P12390); test: Binding assay for human or rat nicotinic acetylcholine α4β2 receptor ([3H]Cytisine displacement); settings: [3H]Cytisine 2.5 nM; rat brain frontal cortex or recombinant human receptor in CHO cells (not specified which); read-out: Ki
[2] = system: Male Sprague Dawley rats; test: Effect of test compounds on body weight gain in high fat fed rats; type: in vivo, rat; settings: oral for 14 days, high fat diet fed rats
Text: Effect of Test Compounds on Body Weight Gain in High Fat Fed Rats
The body weight gain suppressing properties of compounds of this invention were studied using a animal model of obesity.
Male Sprague Dawley rats (150-160 grams) obtained from Reliance Life Sciences, India were used as experimental animals. Rats were fed with control diet (normal pellet diet) and lard based high fat diet (45% kcal diet) for 7-8 weeks. High fat diet fed animals was randomized according to their body weights. The animals were housed in a group of 3-4 per cage. One group of 10 rats received vehicle (2 mL/Kg) orally and another set of animals received compound of the formula (I) orally for 14 days. Body weight of the animals was recorded for first three consecutive days then it was recorded twice weekly. Weighed amount of food was given to the animals and food intake was recorded every 24 hour for the entire study period.

Structure (SMILES): CNCC1CC2CC2N1c1cccnc1.Cl (stereo not drawn) [Example 4, N-[2-(Pyridin-3-yl)-2-azabicyclo[3.1.0]hex-3-ylmethyl]methylamine hydrochloride]
- Ki [1]: 59.4 nM
- Inference [2]: Active
- % Reduction in body weight gain compared to vehicle (Day 14) ([2]; Day 14): 3.3%
